Calls of active or inactive are those of the source.
Assays:
Format in all cases: functional, cell-based
[1] = tested on: HCC 2998; assay: Growth inhibition of human HCC2998 cells at 1 uM after 48 hrs by sulforhodamine B assay
[2] = tested on: HOP-92; assay: Growth inhibition of human HOP92 cells at 1 uM after 48 hrs by sulforhodamine B assay
[3] = tested on: T47D; assay: Growth inhibition of human T47D cells at 1 uM after 48 hrs by sulforhodamine B assay
[4] = tested on: CCRF-CEM; assay: Growth inhibition of human CCRF-CEM cells at 1 uM after 48 hrs by sulforhodamine B assay
[5] = tested on: IGROV-1; assay: Growth inhibition of human IGROV1 cells at 1 uM after 48 hrs by sulforhodamine B assay
[6] = tested on: BT-549; assay: Growth inhibition of human BT549 cells at 1 uM after 48 hrs by sulforhodamine B assay
[7] = tested on: NCI-H226; assay: Growth inhibition of human NCI-H226 cells at 1 uM after 48 hrs by sulforhodamine B assay
[8] = tested on: MDA-MB-468; assay: Growth inhibition of human MDA-MB-468 cells at 1 uM after 48 hrs by sulforhodamine B assay
[9] = tested on: SK-MEL-28; assay: Growth inhibition of human SK-MEL-28 cells at 1 uM after 48 hrs by sulforhodamine B assay
[10] = tested on: SN12C; assay: Growth inhibition of human SN12C cells at 1 uM after 48 hrs by sulforhodamine B assay
[11] = tested on: Hs-578T; assay: Growth inhibition of human Hs 578T cells at 1 uM after 48 hrs by sulforhodamine B assay
[12] = tested on: A549; assay: Growth inhibition of human A549 cells at 1 uM after 48 hrs by sulforhodamine B assay
[13] = tested on: SR; assay: Growth inhibition of human SR cells at 1 uM after 48 hrs by sulforhodamine B assay
[14] = tested on: MDA-MB-231; assay: Growth inhibition of human MDA-MB-231 cells at 1 uM after 48 hrs by sulforhodamine B assay
[15] = tested on: RXF 393; assay: Growth inhibition of human RXF393 cells at 1 uM after 48 hrs by sulforhodamine B assay
[16] = tested on: OVCAR-3; assay: Growth inhibition of human OVCAR-3 cells at 1 uM after 48 hrs by sulforhodamine B assay
[17] = tested on: RPMI-8226; assay: Growth inhibition of human RPMI8226 cells at 1 uM after 48 hrs by sulforhodamine B assay
[18] = tested on: NCI/ADR-RES; assay: Growth inhibition of human NCI/ADR-RES cells at 1 uM after 48 hrs by sulforhodamine B assay
[19] = tested on: 786-0; assay: Growth inhibition of human 786-0 cells at 1 uM after 48 hrs by sulforhodamine B assay
[20] = tested on: SF-295; assay: Growth inhibition of human SF295 cells at 1 uM after 48 hrs by sulforhodamine B assay
[21] = tested on: UACC-257; assay: Growth inhibition of human UACC257 cells at 1 uM after 48 hrs by sulforhodamine B assay
[22] = tested on: HL-60; assay: Growth inhibition of human HL-60(TB) cells at 1 uM after 48 hrs by sulforhodamine B assay
[23] = tested on: OVCAR-4; assay: Growth inhibition of human OVCAR4 cells at 1 uM after 48 hrs by sulforhodamine B assay
[24] = tested on: KM12; assay: Growth inhibition of human KM12 cells at 1 uM after 48 hrs by sulforhodamine B assay
[25] = tested on: SK-MEL-2; assay: Growth inhibition of human SK-MEL-2 cells at 1 uM after 48 hrs by sulforhodamine B assay
[26] = tested on: TK-10; assay: Growth inhibition of human TK10 cells at 1 uM after 48 hrs by sulforhodamine B assay
[27] = tested on: HT-29; assay: Growth inhibition of human HT-29 cells at 1 uM after 48 hrs by sulforhodamine B assay
[28] = tested on: MCF7; assay: Growth inhibition of human MCF7 cells at 1 uM after 48 hrs by sulforhodamine B assay
[29] = tested on: UO-31; assay: Growth inhibition of human UO31 cells at 1 uM after 48 hrs by sulforhodamine B assay
[30] = tested on: CAKI-1; assay: Growth inhibition of human Caki1 cells at 1 uM after 48 hrs by sulforhodamine B assay
[31] = tested on: SF530; assay: Growth inhibition of human SF530 cells at 1 uM after 48 hrs by sulforhodamine B assay
[32] = tested on: DU-145; assay: Growth inhibition of human DU145 cells at 1 uM after 48 hrs by sulforhodamine B assay
[33] = tested on: K562; assay: Growth inhibition of human K562 cells at 1 uM after 48 hrs by sulforhodamine B assay
[34] = tested on: MOLT-4; assay: Growth inhibition of human MOLT4 cells at 1 uM after 48 hrs by sulforhodamine B assay
[35] = tested on: SK-MEL-5; assay: Growth inhibition of human SK-MEL-5 cells at 1 uM after 48 hrs by sulforhodamine B assay
[36] = tested on: MDA-MB-435; assay: Growth inhibition of human MDA-MB-435 cells at 1 uM after 48 hrs by sulforhodamine B assay
[37] = tested on: Malme-3M; assay: Growth inhibition of human MALME-3M cells at 1 uM after 48 hrs by sulforhodamine B assay
[38] = tested on: NCI-H322M; assay: Growth inhibition of human […] cells at 1 uM after 48 hrs by sulforhodamine B assay
[39] = tested on: SF-539; assay: Growth inhibition of human SF539 cells at 1 uM after 48 hrs by sulforhodamine B assay
[40] = tested on: LOX IMVI; assay: Growth inhibition of human LOXIMVI cells at 1 uM after 48 hrs by sulforhodamine B assay
[41] = tested on: ACHN; assay: Growth inhibition of human ACHN cells at 1 uM after 48 hrs by sulforhodamine B assay
[42] = tested on: OVCAR-8; assay: Growth inhibition of human OVCAR8 cells at 1 uM after 48 hrs by sulforhodamine B assay
[43] = tested on: SNB-75; assay: Growth inhibition of human SNB75 cells at 1 uM after 48 hrs by sulforhodamine B assay
[44] = tested on: HCT-15; assay: Growth inhibition of human HCT15 cells at 1 uM after 48 hrs by sulforhodamine B assay
[45] = tested on: U-251; assay: Growth inhibition of human U251 cells at 1 uM after 48 hrs by sulforhodamine B assay
[46] = tested on: EKVX; assay: Growth inhibition of human EKVX cells at 1 uM after 48 hrs by sulforhodamine B assay
[47] = tested on: NCI-H522; assay: Growth inhibition of human NCI-H522 cells at 1 uM after 48 hrs by sulforhodamine B assay
[48] = tested on: PC-3; assay: Growth inhibition of human PC3 cells at 1 uM after 48 hrs by sulforhodamine B assay
[49] = tested on: A498; assay: Growth inhibition of human A498 cells at 1 uM after 48 hrs by sulforhodamine B assay
[50] = tested on: HOP-62; assay: Growth inhibition of human HOP62 cells at 1 uM after 48 hrs by sulforhodamine B assay
[51] = tested on: NCI-H23; assay: Growth inhibition of human NCI-H23 cells at 1 uM after 48 hrs by sulforhodamine B assay
[52] = tested on: HCT-116; assay: Growth inhibition of human HCT116 cells at 1 uM after 48 hrs by sulforhodamine B assay
[53] = tested on: M14; assay: Growth inhibition of human M14 cells at 1 uM after 48 hrs by sulforhodamine B assay
[54] = tested on: SW-620; assay: Growth inhibition of human SW620 cells at 1 uM after 48 hrs by sulforhodamine B assay
[55] = tested on: SF-268; assay: Growth inhibition of human SF268 cells at 1 uM after 48 hrs by sulforhodamine B assay
[56] = tested on: UACC-62; assay: Growth inhibition of human UACC62 cells at 1 uM after 48 hrs by sulforhodamine B assay
[57] = tested on: COLO 205; assay: Growth inhibition of human COLO205 cells at 1 uM after 48 hrs by sulforhodamine B assay
[58] = tested on: NCI-H460; assay: Growth inhibition of human NCI-H460 cells at 1 uM after 48 hrs by sulforhodamine B assay

Measured: growth inhibition (GI)

Nc1ncnc2c1N=C1c3ccccc3CCC1C(c1ccc(F)cc1)N2 (stereo not drawn)
active: all assays above

Source: ChEMBL document CHEMBL1177848, “Synthesis of novel 6,6a,7,8-tetrahydro-5H-naphtho[1,2-e]pyrimido[4,5-b][1,4]diazepines under microwave irradiation as potential anti-tumor agents” (2010)
